Experimental data: US20160367623A1, “AGONISTS OF GUANYLATE CYCLASE USEFUL FOR THE TREATMENT OF GASTROINTESTINAL DISORDERS, INFLAMMATION, CANCER AND OTHER DISORDERS” (priority 2015, published 2016)
Bridge positions count the residues as written; N and C are the ends. Ends that are not written are not given here.

System: patients with chronic idiopathic constipation (CIC)
Test: Second phase 3 CIC trial: CSBM weekly responders by week
Assay type: in vivo, human
Settings: MRA
Description: Both trials include a two-week pre-treatment baseline period, a 12-week treatment period, and a two-week post-treatment period. The phase 3 CIC program was designed to support regulatory submission in the U. S.
The primary endpoint for both trials is the proportion of durable overall responders (%), which is the current regulatory endpoint required for U.S. approval in CIC. The FDA has defined a durable overall responder as a patient who fulfills both ≧3 complete spontaneous bowel movements (CSBMs) per week plus an increase of ≧1 CSBM from baseline in the same week, for 9 out of the 12 treatment weeks. In addition, the same patient must be an overall responder for at least 3 of the last 4 treatment weeks in order to be considered a durable overall responder.
Patients were selected using Rome 3 criteria modified for CIC and had (1) fewer than 3 defecations per week, (2) loose stools occurring rarely without laxatives, (3) inadequate criteria for irritable bowel syndrome with constipation (IBS-C), and (4) at least two of the following applied to at least 25% of defecations: (a) straining during evacuation, (b) lumpy or hard stools, (c) sensation of anorectal obstruction or blockage. Rome 3 requires patients to fulfill the criteria for the last 3 months with symptom onset at least 6 months prior to diagnosis.

[1] = Week 2, 6 mg, ITT Population-Excluding Duplicate Patients
[2] = Week 2, Active Combined, ITT Population-Excluding Duplicate Patients
[3] = Week 2, Active Combined, ITT Population
[4] = Week 3, 3 mg, ITT Population-Excluding Duplicate Patients
[5] = Week 3, 6 mg, ITT Population-Excluding Duplicate Patients
[6] = Week 3, Active Combined, ITT Population-Excluding Duplicate Patients
[7] = Week 3, Active Combined, ITT Population
[8] = Week 4, 3 mg, ITT Population-Excluding Duplicate Patients
[9] = Week 4, 6 mg, ITT Population-Excluding Duplicate Patients
[10] = Week 4, Active Combined, ITT Population-Excluding Duplicate Patients
[11] = Week 4, Active Combined, ITT Population
[12] = Week 5, 3 mg, ITT Population-Excluding Duplicate Patients
[13] = Week 5, 6 mg, ITT Population-Excluding Duplicate Patients
[14] = Week 5, Active Combined, ITT Population-Excluding Duplicate Patients

## Asn^1-Asp^2-Glu^3-Cys^4-Glu^5-Leu^6-Cys^7-Val^8-Asn^9-Val^10-Ala^11-Cys^12-Thr^13-Gly^14-Cys^15-Leu^16 (NDECELCVNVACTGCL; disulfide 4-12, 7-15) [Plecanatide, uroguanylin analogue, guanylate cyclase-C agonist; (C4:C12, C7:C15) bicycle peptide]
Week 2, 6 mg minus placebo, All Randomized (includes Duplicate Patients)
  Difference in Proportions (adjusted): 0.114
Week 2, 6 mg vs placebo, All Randomized (includes Duplicate Patients)
  Odds Ratio (adjusted): 0.513
Week 2, 6 mg, All Randomized (includes Duplicate Patients)
  CSBM Weekly Responders, n (%): 132 (28.0) n (%)
Week 2, 6 mg, ITT Population
  CSBM Weekly Responders, n (%): 123 (27.4) n (%)
  Non-Responders, n (%): 326 (72.6) n (%)
[1]
  CSBM Weekly Responders, n (%): 123 (27.8) n (%)
  Non-Responders, n (%): 320 (72.2) n (%)
Week 2, Active Combined, All Randomized (includes Duplicate Patients)
  CSBM Weekly Responders, n (%): 252 (26.8) n (%)
Week 2, 3 mg minus placebo, ITT Population-Excluding Duplicate Patients
  Difference in Proportions (adjusted): 0.086
Week 2, 3 mg minus placebo, ITT Population
  Difference in Proportions (adjusted): 0.087
Week 2, 3 mg vs placebo, ITT Population-Excluding Duplicate Patients
  Odds Ratio (adjusted): 0.592
Week 2, 3 mg vs placebo, ITT Population
  Odds Ratio (adjusted): 0.59
Week 2, 6 mg minus placebo, ITT Population-Excluding Duplicate Patients
  Difference in Proportions (adjusted): 0.111
Week 2, 6 mg minus placebo, ITT Population
  Difference in Proportions (adjusted): 0.108
Week 2, 6 mg vs placebo, ITT Population-Excluding Duplicate Patients
  Odds Ratio (adjusted): 0.523
Week 2, 6 mg vs placebo, ITT Population
  Odds Ratio (adjusted): 0.53
[2]
  CSBM Weekly Responders, n (%): 233 (26.6) n (%)
  Non-Responders, n (%): 644 (73.4) n (%)
[3]
  CSBM Weekly Responders, n (%): 235 (26.3) n (%)
  Non-Responders, n (%): 657 (73.7) n (%)
Week 3, 3 mg minus placebo, All Randomized (includes Duplicate Patients)
  Difference in Proportions (adjusted): 0.070
Week 3, 3 mg vs placebo, All Randomized (includes Duplicate Patients)
  Odds Ratio (adjusted): 0.691
Week 3, 3 mg, All Randomized (includes Duplicate Patients)
  CSBM Weekly Responders, n (%): 135 (28.7) n (%)
Week 3, 3 mg, ITT Population
  CSBM Weekly Responders, n (%): 125 (28.2) n (%)
  Non-Responders, n (%): 318 (71.8) n (%)
[4]
  CSBM Weekly Responders, n (%): 122 (28.1) n (%)
  Non-Responders, n (%): 312 (71.9) n (%)
Week 3, 6 mg minus placebo, All Randomized (includes Duplicate Patients)
  Difference in Proportions (adjusted): 0.056
Week 3, 6 mg vs placebo, All Randomized (includes Duplicate Patients)
  Odds Ratio (adjusted): 0.738
Week 3, 6 mg, ITT Population
  CSBM Weekly Responders, n (%): 120 (26.7) n (%)
  Non-Responders, n (%): 329 (73.3) n (%)
[5]
  CSBM Weekly Responders, n (%): 119 (26.9) n (%)
  Non-Responders, n (%): 324 (73.1) n (%)
Week 3, 3 mg minus placebo, ITT Population-Excluding Duplicate Patients
  Difference in Proportions (adjusted): 0.054
Week 3, 3 mg minus placebo, ITT Population
  Difference in Proportions (adjusted): 0.057
Week 3, 3 mg vs placebo, ITT Population-Excluding Duplicate Patients
  Odds Ratio (adjusted): 0.750
Week 3, 3 mg vs placebo, ITT Population
  Odds Ratio (adjusted): 0.739
Week 3, 6 mg minus placebo, ITT Population-Excluding Duplicate Patients
  Difference in Proportions (adjusted): 0.042
Week 3, 6 mg minus placebo, ITT Population
  Difference in Proportions (adjusted): 0.043
Week 3, 6 mg vs placebo, ITT Population-Excluding Duplicate Patients
  Odds Ratio (adjusted): 0.798
Week 3, 6 mg vs placebo, ITT Population
  Odds Ratio (adjusted): 0.796
[6]
  CSBM Weekly Responders, n (%): 241 (27.5) n (%)
  Non-Responders, n (%): 636 (72.5) n (%)
[7]
  CSBM Weekly Responders, n (%): 245 (27.5) n (%)
  Non-Responders, n (%): 647 (72.5) n (%)
Week 4, 3 mg minus placebo, All Randomized (includes Duplicate Patients)
  Difference in Proportions (adjusted): 0.093
Week 4, 3 mg vs placebo, All Randomized (includes Duplicate Patients)
  Odds Ratio (adjusted): 0.611
Week 4, 3 mg, ITT Population
  CSBM Weekly Responders, n (%): 132 (29.8) n (%)
  Non-Responders, n (%): 311 (70.2) n (%)
[8]
  CSBM Weekly Responders, n (%): 130 (30.0) n (%)
  Non-Responders, n (%): 304 (70.0) n (%)
Week 4, 6 mg minus placebo, All Randomized (includes Duplicate Patients)
  Difference in Proportions (adjusted): 0.082
Week 4, 6 mg vs placebo, All Randomized (includes Duplicate Patients)
  Odds Ratio (adjusted): 0.644
Week 4, 6 mg, ITT Population
  CSBM Weekly Responders, n (%): 127 (28.3) n (%)
  Non-Responders, n (%): 322 (71.7) n (%)
[9]
  CSBM Weekly Responders, n (%): 126 (28.4) n (%)
  Non-Responders, n (%): 317 (71.6) n (%)
Week 4, 3 mg minus placebo, ITT Population-Excluding Duplicate Patients
  Difference in Proportions (adjusted): 0.082
Week 4, 3 mg minus placebo, ITT Population
  Difference in Proportions (adjusted): 0.082
Week 4, 3 mg vs placebo, ITT Population-Excluding Duplicate Patients
  Odds Ratio (adjusted): 0.650
Week 4, 3 mg vs placebo, ITT Population
  Odds Ratio (adjusted): 0.648
Week 4, 6 mg minus placebo, ITT Population-Excluding Duplicate Patients
  Difference in Proportions (adjusted): 0.067
Week 4, 6 mg minus placebo, ITT Population
  Difference in Proportions (adjusted): 0.067
Week 4, 6 mg vs placebo, ITT Population-Excluding Duplicate Patients
  Odds Ratio (adjusted): 0.698
Week 4, 6 mg vs placebo, ITT Population
  Odds Ratio (adjusted): 0.697
[10]
  CSBM Weekly Responders, n (%): 256 (29.2) n (%)
  Non-Responders, n (%): 621 (70.8) n (%)
[11]
  CSBM Weekly Responders, n (%): 259 (29.0) n (%)
  Non-Responders, n (%): 633 (71.0) n (%)
Week 5, 3 mg minus placebo, All Randomized (includes Duplicate Patients)
  Difference in Proportions (adjusted): 0.119
Week 5, 3 mg vs placebo, All Randomized (includes Duplicate Patients)
  Odds Ratio (adjusted): 0.560
Week 5, 3 mg, ITT Population
  CSBM Weekly Responders, n (%): 154 (34.8) n (%)
  Non-Responders, n (%): 289 (65.2) n (%)
[12]
  CSBM Weekly Responders, n (%): 153 (35.3) n (%)
  Non-Responders, n (%): 281 (64.7) n (%)
Week 5, 6 mg minus placebo, All Randomized (includes Duplicate Patients)
  Difference in Proportions (adjusted): 0.061
Week 5, 6 mg vs placebo, All Randomized (includes Duplicate Patients)
  Odds Ratio (adjusted): 0.731
Week 5, 6 mg, ITT Population
  CSBM Weekly Responders, n (%): 133 (29.6) n (%)
  Non-Responders, n (%): 316 (70.4) n (%)
[13]
  CSBM Weekly Responders, n (%): 132 (29.8) n (%)
  Non-Responders, n (%): 311 (70.2) n (%)
Week 5, 3 mg minus placebo, ITT Population-Excluding Duplicate Patients
  Difference in Proportions (adjusted): 0.107
Week 5, 3 mg minus placebo, ITT Population
  Difference in Proportions (adjusted): 0.105
Week 5, 3 mg vs placebo, ITT Population-Excluding Duplicate Patients
  Odds Ratio (adjusted): 0.596
Week 5, 3 mg vs placebo, ITT Population
  Odds Ratio (adjusted): 0.602
Week 5, 6 mg minus placebo, ITT Population-Excluding Duplicate Patients
  Difference in Proportions (adjusted): 0.053
Week 5, 6 mg minus placebo, ITT Population
  Difference in Proportions (adjusted): 0.054
Week 5, 6 mg vs placebo, ITT Population-Excluding Duplicate Patients
  Odds Ratio (adjusted): 0.764
Week 5, 6 mg vs placebo, ITT Population
  Odds Ratio (adjusted): 0.762
[14]
  CSBM Weekly Responders, n (%): 285 (32.5) n (%)
  Non-Responders, n (%): 592 (67.5) n (%)
Week 5, Active Combined, ITT Population
  CSBM Weekly Responders, n (%): 287 (32.2) n (%)
